Laboratory results published in patent US9480679B2, “Methods for treating malaria, tuberculosis and MAC diseases” (priority 2009, dated 2016).
Converted amounts (≈) assume the structure as drawn. “And” between values parts separate entries of the source, which are not always exact repeats. Identical values can stand only once. Like-named read-outs stand apart in the source and are kept apart here.

What was measured:
[1] = test system: P. falciparum NF54; test: In vitro P. falciparum 120 hour assay (96+24); format: cell-based; details: Plasmodium falciparum
Experimental: EXAMPLE. In vitro and in vivo activity against different species of Plasmodium parasites. CEM-101 was tested against intra-erythrocytic forms of P. falciparum derived from asynchronous cultures of the strain […]. Parasite growth over 120 h was measured by the incorporation of radiolabelled [^3H]hypoxanthine (in hypoxanthine free culture medium) added after 96 h of drug incubation and 24 h prior to the termination of the test. CEM-101 was followed for 120 h. CEM-101 has delayed activity when compared to other agents.
In vitro P. falciparum data for CEM-101 in the 120 h Assay (96+24)

[2] = test system: P. falciparum NF54; test: In vitro P. falciparum 72 hour assay (48+24); format: cell-based; details: Plasmodium falciparum
Experimental: EXAMPLE. In vitro and in vivo activity against different species of Plasmodium parasites. CEM-101 was tested against intra-erythrocytic forms of P. falciparum derived from asynchronous cultures of the strain […]. […] CEM-101 was followed for 120 h. CEM-101 has delayed activity when compared to other agents.
In vitro P. falciparum data for CEM-101 in the 72 h Assay (48+24)

[3] = test system: P. berghei; test: Murine P. berghei model, oral 1x or 4x 100 mg/kg; format: in vivo; details: mice; for Parasitized RBC over 100 (made by FACS): individual animals
Experimental: EXAMPLE. CEM-101 activity in infected mice.
EXAMPLE. CEM-101 was tested in the murine P. berghei model as described by Vennerstrom et al. Nature 430(7002):900-904 (2004), the disclosure of which is incorporated herein by reference.

[4] = test system: M. avium; details: Bermudez 2001; cited from earlier work
[5] = test system: M. tuberculosis; details: 100 mg/kg once daily for 3 weeks (Zhu 2008); cited from earlier work
[6] = test system: replicating M. tuberculosis; details: reported values; cited from earlier work
[7] = test system: M. avium LPR ATCC 49601; test: Murine model of M. avium infection, CFU in spleens and lungs; format: in vivo; details: mice, 200 mg/kg orally 5 days/week for 4 weeks; P<0.05
[8] = test system: M. tuberculosis; details: reported in vitro activity; cited from earlier work
[9] = test system: replicating M. tuberculosis; test: Microplate Alamar Blue Assay (MABA), replicating culture; format: cell-based; details: two experiments
[10] = test system: replicating M. tuberculosis; test: Aero RLU (Relative Light Units under aerobic conditions), replicating culture; format: cell-based; details: two experiments
[11] = test system: M. avium complex; test: Broth dilution MIC versus M. avium complex isolates; format: cell-based, Mycobacterium avium
[12] = NF54, 120 h assay (96+24), read-out: IC50 NF54
[13] = NF54, 120 hour assay (96+24), read-out: IC50 NF54 Test 1
[14] = NF54, 120 hour assay (96+24), read-out: IC50 NF54 Test 2
[15] = NF54, 120 hour assay (96+24), read-out: IC50 NF54 Test 3

C[C@H]1[C@H](OC(=O)CCC(=O)O)O[C@@H]2O[C@@]3(C)CC[C@H]4[C@H](C)CC[C@@H]1[C@@]24OO3 [Artesunate]
IC50 ([1]; NF54, 120 h, read-out: IC50 NF54): 3.3 ng/mL (≈ 0.00858 µM)
IC50 ([1]; NF54, 120 h, read-out: IC50 NF54 Test 1): 4.2 ng/mL (≈ 0.0109 µM)
IC50 ([1]; NF54, 120 h, read-out: IC50 NF54 Test 2): 3.9 ng/mL (≈ 0.0101 µM)
IC50 ([1]; NF54, 120 h, read-out: IC50 NF54 Test 3): 3.3 ng/mL (≈ 0.00858 µM)
IC50 ([2]; NF54, 72 h, read-out: IC50 NF54 TEST 1): 3 ng/mL (≈ 0.0078 µM)
IC50 ([2]; NF54, 72 h, read-out: IC50 NF54 TEST 2): 3.2 ng/mL (≈ 0.00832 µM)
IC50 ([2]; NF54, 72 h, read-out: IC50 NF54 TEST 3): 3 ng/mL (≈ 0.0078 µM)
IC50 ([2]; NF54, 72 h, read-out: IC50 NF54 TEST 4): 2.8 ng/mL (≈ 0.00728 µM)
IC50 ([2]; NF54, 72 h, read-out: IC50 NF54 Test 1): 3 ng/mL (≈ 0.0078 µM)
IC50 ([2]; NF54, 72 h, read-out: IC50 NF54 Test 2): 3.2 ng/mL (≈ 0.00832 µM)
IC50 ([2]; NF54, 72 h, read-out: IC50 NF54 Test 3): 3 ng/mL (≈ 0.0078 µM)
IC50 ([2]; NF54, 72 h, read-out: IC50 NF54 Test 4): 2.8 ng/mL (≈ 0.00728 µM)

CC[C@H]1OC(=O)[C@H](C)[C@@H](O[C@H]2C[C@@](C)(OC)[C@@H](O)[C@H](C)O2)[C@H](C)[C@@H](O[C@@H]2O[C@H](C)C[C@H](N(C)C)[C@H]2O)[C@](C)(O)C[C@@H](C)CN(C)[C@H](C)[C@@H](O)[C@]1(C)O [Azithromycin, reference compound]
Activity (%) ([3]; 1 × 100 mg/kg oral, DMSO): 70.39%
Survival ([3]; 1 × 100 mg/kg oral, DMSO): 14.0 days
Activity (%) ([3]; 1 × 100 mg/kg oral, HPMC): 65.19%
Survival ([3]; 1 × 100 mg/kg oral, HPMC): 14.0 days
Activity (%) ([3]; 4 × 100 mg/kg oral, DMSO): 99.11%
Cure (%) ([3]; 4 × 100 mg/kg oral, DMSO): 0%
Survival ([3]; 4 × 100 mg/kg oral, DMSO, survivors sacrificed on Day 31): 30.0 days
Activity (%) ([3]; 4 × 100 mg/kg oral, HPMC): 99.13%
Cure (%) ([3]; 4 × 100 mg/kg oral, HPMC): 0%
Survival ([3]; 4 × 100 mg/kg oral, HPMC, survivors sacrificed on Day 31): 24.0 days
blood from treated animals parasite free or not ([3]; 4× 100 mg/kg p.o.): is not
Visual Observation (parasites in blood) ([3]; 4× 100 mg/kg p.o., DMSO): pos
Parasitized RBC over 100 (made by FACS) ([3]; 4× 100 mg/kg p.o., DMSO, 100 mg/kg): 34.32 and 2.20 and 36.31
Visual Observation (parasites in blood) ([3]; 4× 100 mg/kg p.o., HPMC): pos
Parasitized RBC over 100 (made by FACS) ([3]; 4× 100 mg/kg p.o., HPMC): 74.04

CC[C@H]1OC(=O)[C@H](C)C(=O)[C@H](C)[C@@H](O[C@@H]2O[C@H](C)C[C@H](N(C)C)[C@H]2O)[C@](C)(OC/C=C/c2cnc3ccccc3c2)C[C@@H](C)C(=O)[C@H](C)[C@H]2NC(=O)O[C@@]21C [Cethromycin]
bactericidal activity against M. avium [4]: lack of significant bactericidal activity
reduction of CFU in the lungs of mice [5]: failed to significantly reduce CFU
MABA MIC [6]: 4000 ng/mL

CCN(CC)CCCC(C)Nc1ccnc2cc(Cl)ccc12 (stereo not shown) [Chloroquine]
IC50 [1, 12]: 4.7 ng/mL (≈ 0.0147 µM)
IC50 [1, 13]: 4.6 ng/mL (≈ 0.0144 µM)
IC50 [1, 14]: 4.6 ng/mL (≈ 0.0144 µM)
IC50 [1, 15]: 4.7 ng/mL (≈ 0.0147 µM)
IC50 ([2]; NF54, 72 h assay (48+24), read-out: IC50 NF54 TEST 1): 4.4 ng/mL (≈ 0.0138 µM)
IC50 ([2]; NF54, 72 h assay (48+24), read-out: IC50 NF54 TEST 2): 5.4 ng/mL (≈ 0.0169 µM)
IC50 ([2]; NF54, 72 h assay (48+24), read-out: IC50 NF54 TEST 3): 4.4 ng/mL (≈ 0.0138 µM)
IC50 ([2]; NF54, 72 h assay (48+24), read-out: IC50 NF54 TEST 4): 4.8 ng/mL (≈ 0.015 µM)
IC50 ([2]; NF54, 72 hour assay (48+24), read-out: IC50 NF54 Test 1): 4.4 ng/mL (≈ 0.0138 µM)
IC50 ([2]; NF54, 72 hour assay (48+24), read-out: IC50 NF54 Test 2): 5.4 ng/mL (≈ 0.0169 µM)
IC50 ([2]; NF54, 72 hour assay (48+24), read-out: IC50 NF54 Test 3): 4.4 ng/mL (≈ 0.0138 µM)
IC50 ([2]; NF54, 72 hour assay (48+24), read-out: IC50 NF54 Test 4): 4.8 ng/mL (≈ 0.015 µM)

CC[C@H]1OC(=O)[C@H](C)[C@@H](O[C@H]2C[C@@](C)(OC)[C@@H](O)[C@H](C)O2)[C@H](C)[C@@H](O[C@@H]2O[C@H](C)C[C@H](N(C)C)[C@H]2O)[C@](C)(OC)C[C@@H](C)C(=O)[C@H](C)[C@@H](O)[C@]1(C)O [Clarithromycin, reference compound]
reduction in growth of MAC LPR in the spleens and lungs compared to the late controls [7]: significant
MIC [8]: 8000 ng/mL (≈ 10.7 µM)
MIC ([9]; Mycobacterium tuberculosis): 14.5 µM (≈ 10.9 µg/mL)
MIC [9]: 13.34 µM (≈ 9.98 µg/mL)
Aero RLU [10]: 22.46 µM and 18.82 µM
MIC ([11]; Mycobacterium avium): 128000 ng/mL (≈ 171 µM)
MIC ([11]; Mycobacterium avium, isolate MAC 101, clarithromycin susceptible, read-out: MIC): 125 ng/mL (≈ 0.167 µM)
MIC ([11]; Mycobacterium avium, isolate MAC 103, clarithromycin resistant, read-out: MIC): 64000 ng/mL (≈ 85.6 µM)
MIC ([11]; Mycobacterium avium, isolate MAC 108, clarithromycin resistant, read-out: MIC): 64000 ng/mL (≈ 85.6 µM)
MIC ([11]; Mycobacterium avium, isolate MAC 110, clarithromycin resistant, read-out: MIC): 64000 ng/mL (≈ 85.6 µM)
MIC ([11]; Mycobacterium avium, isolate MAC 216, clarithromycin resistant, read-out: MIC): 32000 ng/mL (≈ 42.8 µM)
MIC ([11]; Mycobacterium avium, isolate MAC 309, clarithromycin resistant, read-out: MIC): 64000 ng/mL (≈ 85.6 µM)
MIC ([11]; Mycobacterium avium, isolate MAC 320, clarithromycin resistant, read-out: MIC): 64000 ng/mL (≈ 85.6 µM)
MIC ([11]; Mycobacterium avium, isolate MAC 623, clarithromycin resistant, read-out: MIC): 64000 ng/mL (≈ 85.6 µM)
MIC ([11]; Mycobacterium avium, isolate MAC 625, clarithromycin resistant, read-out: MIC): 64000 ng/mL (≈ 85.6 µM)
MIC ([11]; Mycobacterium avium, isolate MAC 643, clarithromycin resistant, read-out: MIC): 64000 ng/mL (≈ 85.6 µM)
MIC ([11]; Mycobacterium avium, isolate MAC 1408, clarithromycin susceptible, read-out: MIC): 250 ng/mL (≈ 0.334 µM)
MIC ([11]; Mycobacterium avium, isolate MAC 3404.4, clarithromycin susceptible, read-out: MIC): 125 ng/mL (≈ 0.167 µM)
MIC ([11]; Mycobacterium avium, isolate MAC 9141, clarithromycin susceptible, read-out: MIC): 250 ng/mL (≈ 0.334 µM)
MIC ([11]; Mycobacterium avium, isolate MAC FAR, clarithromycin susceptible, read-out: MIC): 125 ng/mL (≈ 0.167 µM)
MIC ([11]; Mycobacterium avium, isolate MAC GRL, clarithromycin susceptible, read-out: MIC): 2000 ng/mL (≈ 2.67 µM)
MIC ([11]; Mycobacterium avium, isolate MAC KAL, clarithromycin susceptible, read-out: MIC): 8000 ng/mL (≈ 10.7 µM)
MIC ([11]; Mycobacterium avium, isolate MAC KZL, clarithromycin susceptible, read-out: MIC): 1000 ng/mL (≈ 1.34 µM)
MIC ([11]; Mycobacterium avium, isolate MAC Pry, clarithromycin resistant, read-out: MIC): 64000 ng/mL (≈ 85.6 µM)
MIC ([11]; Mycobacterium avium, isolate MAC SMT, clarithromycin susceptible, read-out: MIC): 250 ng/mL (≈ 0.334 µM)
MIC ([11]; Mycobacterium avium, isolate MAC TEL, clarithromycin susceptible, read-out: MIC): 2000 ng/mL (≈ 2.67 µM)
MIC ([11]; Mycobacterium avium, isolate MAC TRY, clarithromycin susceptible, read-out: MIC): 500 ng/mL (≈ 0.668 µM)
MIC ([11]; isolate MAC 224, clarithromycin resistant): 128000 ng/mL (≈ 171 µM)
MABA MIC [6]: 8000 ng/mL

CCC[C@@H]1C[C@@H](C(=O)N[C@@H]([C@H]2O[C@H](SC)[C@H](O)[C@@H](O)[C@H]2O)[C@H](C)Cl)N(C)C1 [Clindamycin]
IC50 [1, 12]: 5.3 ng/mL (≈ 0.0125 µM)
IC50 [1, 13]: < 7.8 ng/mL
IC50 [1, 14]: 5.3 ng/mL (≈ 0.0125 µM)
IC50 [1, 15]: 5.3 ng/mL (≈ 0.0125 µM)
Cure (%) ([3]; 4 × 100 mg/kg oral, DMSO): 0%
Cure (%) ([3]; 4 × 100 mg/kg oral, HPMC): 0%

CC[C@H]1OC(=O)[C@H](C)C(=O)[C@H](C)[C@@H](O[C@@H]2O[C@H](C)C[C@H](N(C)C)[C@H]2O)[C@](C)(OC)C[C@@H](C)C(=O)[C@H](C)[C@H]2N(CCCCn3cnc(-c4cccnc4)c3)C(=O)O[C@]12C [telithromycin]
bactericidal activity against M. avium [4]: lack of significant bactericidal activity
MABA MIC [6]: 128000 ng/mL
